“And” between values parts separate entries of the source, which are not always exact repeats. Identical values can stand only once.
Key:
SNI neuropathic pain [1] = test system: SNI neuropathic pain; parameters: species or system rats; conditions: rat, in vivo
SNI neuropathic pain [2] = test system: SNI neuropathic pain; parameters: species or system rats; conditions: rat, in vivo; remark: listed apart in the source

Compound: NCC1(CC(=O)O)CCCCC1 [Gabapentin]
- mean relative analgesic rate of Von Frey Hairs (SNI neuropathic pain [1]): 29.71% and 36.26%
- mean relative analgesic rate of foot weight bearing (SNI neuropathic pain [2]): 20.85% and 17.55% and 14.07%
